Results taken from US12157730B2, “Heteroaryl derivative, method for producing same, and pharmaceutical composition comprising same as effective component” (VORONOI INC., priority 2019, dated 2024).

Target: T1, Ba/F3 cell EGFR Exon20 ins NPH (Homo sapiens, UniProt P00533, INS773NPH)
T1 construct: expressed in transfected cells; host or cells: Ba/F3
Experiment: Ba/F3 cell proliferation suppression, EGFR Exon20 ins NPH
Assay type: cell-based
Settings: GI50 class; Ba/F3 cell line with NPH inserted at Exon20 of EGFR; 72 hours
Procedure, shortened: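 After 72 h compound exposure (twelve 3-fold steps, 0.3 nM–50 um final), live cells were measured by CellTiter-Glo luminescence and growth expressed as % of control to derive GI50. Cells were seeded at 3000–5000 per well a day earlier; Ba/F3 medium contained IL-3; three repeats.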

Compound	Ba/F3 (NPH) Activity
C=CC(=O)Nc1cc(Nc2cc(N3OCC[C@@H]3c3cccc(Cl)c3C)ncn2)c(OC)cc1N1CCC(N2CCN(C)CC2)CC1 [compound 485, N-(5-((6-((R)-3-(3-chloro-2-methylphenyl)isoxazolidine-2-yl)pyrimidine-4-yl)amino)-4-methoxy-2-(4-(4-methylpiperazine-1-yl)piperidine-1-yl)phenyl) acrylamide]	A (GI50 < 50 nM)
C=CC(=O)Nc1cc(Nc2cc(N3OCC[C@@H]3c3cccc(Cl)c3Cl)ncn2)c(OC)cc1N1CCN(C2COC2)CC1 [compound 520, N-(5-((6-((R)-3-(2,3-dichlorophenyl)isoxazolidine-2-yl)pyrimidine-4-yl)amino)-4-methoxy-2-(4-(oxetane-3-yl)piperazine-1-yl)phenyl) acrylamide]	A (GI50 < 50 nM)
C=CC(=O)Nc1cc(Nc2cc(N3OCC[C@@H]3c3cc(F)ccc3F)ncn2)c(OC)cc1N1CCN(C2CC2)C[C@H]1C [compound 880, N-(2-((R)-4-cyclopropyl-2-methylpiperazine-1-yl)-5-((6-((R)-3-(2,5-difluorophenyl)isoxazolidine-2-yl)pyrimidine-4-yl)amino)-4-methoxyphenyl) acrylamide]	A (GI50 < 50 nM)
C=CC(=O)Nc1cc(Nc2cc(N3OCC[C@@H]3c3ccc(F)cc3F)ncn2)c(OC)cc1N1CCOCC1 [compound 325, N-(5-((6-((R)-3-(2,4-difluorophenyl)isoxazolidine-2-yl)pyrimidine-4-yl)amino)-4-methoxy-2-morpholinophenyl) acrylamide]	A (GI50 < 50 nM)
C=CC(=O)Nc1cc(Nc2cc(N3OCC[C@@H]3c3ccc(Cl)c(Cl)c3F)ncn2)c(OC)cc1N1CC[C@@H](N2CCOCC2)C1 [Example 294, N-(5-((6-((R)-3-(3,4-dichloro-2-fluorophenyl)isoxazolidine-2-yl)pyrimidine-4-yl)amino)-4-methoxy-2-((R)-3-morpholinopyrolidine-1-yl)phenyl)acrylamide]	B (50 nM ≤ GI50 < 500 nM)
C=CC(=O)Nc1cc(Nc2cc(N3OCC[C@@H]3c3cccc(Cl)c3Cl)ncn2)c(OC)cc1N1CCN(CC)CC1 [compound 480, N-(5-((6-((R)-3-(2,3-dichlorophenyl)isoxazolidine-2-yl)pyrimidine-4-yl)amino)-2-(4-ethylpiperazine-1-yl)-4-methoxyphenyl) acrylamide]	A (GI50 < 50 nM)

Now from value to compound:

Ba/F3 (NPH) Activity	Compound
A (GI50 < 50 nM)	C=CC(=O)Nc1cc(Nc2cc(N3OCC[C@@H]3Cc3cccc(F)c3)ncn2)c(OC)cc1N1CCC(N2CCN(C3CC3)[C@@H](C)C2)CC1 [compound 993, N-(2-(4-((S)-4-cyclopropyl-3-methylpiperazine-1-yl)piperidine-1-yl)-5-((6-((S)-3-(3-fluorobenzyl)isoxazolidine-2-yl)pyrimidine-4-yl)amino)-4-methoxyphenyl) acrylamide]
B (50 nM ≤ GI50 < 500 nM)	C=CC(=O)Nc1cc(Nc2cc(N3OCC[C@@H]3Cc3cccc(N(C)C)c3)ncn2)c(OC)cc1N1CCC(N2C[C@H]3C[C@@H]2CO3)CC1 [compound 1047, N-(2-(4-((1R,4R)-2-oxa-5-azabicyclo [2.2.1]heptane-5-yl)piperidine-1-yl)-5-((6-((S)-3-(3-(dimethylamino)benzyl)isoxazolidine-2-yl)pyrimidine-4-yl)amino)-4-methoxyphenyl) acrylamide]
A (GI50 < 50 nM)	C=CC(=O)Nc1cc(Nc2cc(N3OCC[C@@H]3c3cc(F)ccc3F)ncn2)c(OC)cc1N1CCN(C2COC2)CC1 [compound 881, N-(5-((6-((R)-3-(2,5-difluorophenyl)isoxazolidine-2-yl)pyrimidine-4-yl)amino)-4-methoxy-2-(4-(oxetane-3-yl)piperazine-1-yl)phenyl) acrylamide]
